Article PMC6363832 (Cancer epidemiology, biomarkers & prevention : a …, 2018)

Legend:
Assay type in all cases: biochemical
Settings in all cases: NADPH regenerating system, 50 mM potassium phosphate, 37 °C; HEK293 microsomes
wt FMO5 [1] = biological target: T1, wt FMO5 (Homo sapiens, UniProt P49326); assay: benzydamine N-oxidation, UPLC-MS/MS
T1 sequence (P49326 1-533): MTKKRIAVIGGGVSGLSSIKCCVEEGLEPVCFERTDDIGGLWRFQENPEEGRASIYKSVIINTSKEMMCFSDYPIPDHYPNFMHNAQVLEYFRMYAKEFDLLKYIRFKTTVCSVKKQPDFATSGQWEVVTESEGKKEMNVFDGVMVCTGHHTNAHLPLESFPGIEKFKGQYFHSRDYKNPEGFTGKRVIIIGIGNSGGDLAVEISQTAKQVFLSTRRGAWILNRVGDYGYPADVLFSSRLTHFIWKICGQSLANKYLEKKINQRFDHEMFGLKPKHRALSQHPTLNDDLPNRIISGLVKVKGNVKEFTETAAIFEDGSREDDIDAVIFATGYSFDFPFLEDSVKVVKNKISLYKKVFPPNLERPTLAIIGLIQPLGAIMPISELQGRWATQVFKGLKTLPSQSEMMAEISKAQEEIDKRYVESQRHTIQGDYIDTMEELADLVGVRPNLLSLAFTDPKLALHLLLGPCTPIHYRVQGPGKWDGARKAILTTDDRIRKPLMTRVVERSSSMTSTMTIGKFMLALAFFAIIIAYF

wt FMO4 [2] = biological target: T2, wt FMO4 (Homo sapiens, UniProt P31512); assay: benzydamine N-oxidation, UPLC-MS/MS
T2 sequence (P31512 1-558): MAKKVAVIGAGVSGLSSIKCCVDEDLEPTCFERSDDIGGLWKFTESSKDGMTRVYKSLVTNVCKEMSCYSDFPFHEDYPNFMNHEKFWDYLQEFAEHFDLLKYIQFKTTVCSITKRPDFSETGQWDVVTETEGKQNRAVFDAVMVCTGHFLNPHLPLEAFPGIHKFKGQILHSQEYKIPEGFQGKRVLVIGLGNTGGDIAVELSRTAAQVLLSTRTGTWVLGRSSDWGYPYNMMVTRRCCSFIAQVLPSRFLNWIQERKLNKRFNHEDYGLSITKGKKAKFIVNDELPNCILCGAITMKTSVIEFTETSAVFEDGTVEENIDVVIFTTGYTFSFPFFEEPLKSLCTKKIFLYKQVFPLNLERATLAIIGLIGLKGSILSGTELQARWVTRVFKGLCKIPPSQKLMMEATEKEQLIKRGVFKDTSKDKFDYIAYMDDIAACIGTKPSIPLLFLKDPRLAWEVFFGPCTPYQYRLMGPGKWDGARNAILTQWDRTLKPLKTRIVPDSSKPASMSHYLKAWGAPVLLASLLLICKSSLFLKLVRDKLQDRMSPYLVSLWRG

wt FMO5 [3] = biological target: T1, wt FMO5; assay: nicotine-N'-oxide formation, UPLC-MS/MS
wt FMO4 [4] = biological target: T2, wt FMO4; assay: nicotine-N'-oxide formation, UPLC-MS/MS

Structure (SMILES)	Km (wt FMO5 [1]) [mM]	Km (wt FMO4 [2]) [mM]	Km (wt FMO5 [3]) [mM]	Km (wt FMO4 [4]) [mM]
CN(C)CCCOc1nn(Cc2ccccc2)c2ccccc12 [benzydamine]	> 2	> 3	–	–
CN1CCC[C@H]1c1cccnc1 [compound 4, nicotine]	–	–	> 5	> 5
